Measurements as given in patent US20250154127A1, “BICYCLIC HETEROARYL COMPOUNDS AND USES THEREOF” (ETERN BIOPHARMA (SHANGHAI) CO., LTD., priority 2022, published 2025).

Experiments:
[1] = target: TEAD1(210-426) binding to YAP(50-100) (Homo sapiens, UniProt P28347); assay: TR-FRET Assay for TEAD1(210-426) Binding to YAP(50-100); details: His-TEAD 10 nM, YAP-Biotin peptide 50 nM
Procedure, shortened: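 10 nM His-TEAD1 preincubated 30 min at room temperature with compound (3-fold dilutions, 12 points, 1% DMSO), then 50 nM biotin-YAP peptide added.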

MSTO-211H cells = assay: Proliferation Assay (CellTiter-Glo Luminescent Cell Viability Assay); assay type: cell-based; details: Homo sapiens, 96 hours treatment
Procedure, shortened: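 MSTO-211H cells, 1,500/well in RPMI 1640 with 10% FBS, plated overnight, then treated 96 h with 9-point 3-fold compound series in duplicate (DMSO below 0.5%). Viability by CellTiter-Glo luminescence; inhibition relative to DMSO wells, IC50 by four-parameter fit.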

Sequence of TEAD1(210-426) binding to YAP(50-100) (P28347 209-426): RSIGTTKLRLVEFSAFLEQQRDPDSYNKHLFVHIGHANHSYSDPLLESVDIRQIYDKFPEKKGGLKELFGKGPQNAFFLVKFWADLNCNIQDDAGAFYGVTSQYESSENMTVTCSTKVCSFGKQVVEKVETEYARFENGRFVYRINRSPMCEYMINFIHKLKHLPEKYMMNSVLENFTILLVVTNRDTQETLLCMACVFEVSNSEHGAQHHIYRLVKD

| Structure (SMILES) | IC50 [1] | IC50 (MSTO-211H cells) |
| --- | --- | --- |
| Cn1ccc(Cn2ccc(-c3nn(-c4ccc(C(F)(F)F)cc4)c4ncccc34)cc2=O)n1 [Compound 111, 1-((1-methyl-1H-pyrazol-3-yl)methyl)-4-(1-(4-(trifluoromethyl)phenyl)-1H-pyrazolo[3,4-b]pyridin-3-yl)pyridin-2(1H)-one] | ≤ 100 nM | ≤ 1000 nM |
| Nc1cc(Cn2ccc(-c3nn(-c4ccc(C(F)(F)F)cc4)c4ncccc34)cc2=O)ccn1 [Compound 112, 1-((2-aminopyridin-4-yl)methyl)-4-(1-(4-(trifluoromethyl)phenyl)-1H-pyrazolo[3,4-b]pyridin-3-yl)pyridin-2(1H)-one] | ≤ 100 nM | ≤ 1000 nM |
| O=c1cc(-c2nn(-c3ccc(C(F)(F)F)cc3)c3ncccc23)ccn1Cc1ncccn1 [Compound 115, 1-(pyrimidin-2-ylmethyl)-4-(1-(4-(trifluoromethyl)phenyl)-1H-pyrazolo[3,4-b]pyridin-3-yl)pyridin-2(1H)-one] | ≤ 100 nM | ≤ 1000 nM |
| Nc1nccc(Cn2ccc(-n3nc(-c4ccc(C(F)(F)F)cc4)c4ncccc43)cc2=O)n1 [Compound 118, 1-((2-aminopyrimidin-4-yl)methyl)-4-(3-(4-(trifluoromethyl)phenyl)-1H-pyrazolo[4,3-b]pyridin-1-yl)pyridin-2(1H)-one] | ≤ 100 nM | ≤ 1000 nM |
| Nc1ccnc(Cn2ccc(-n3nc(-c4ccc(C(F)(F)F)cc4)c4ncccc43)cc2=O)n1 [Compound 119, 1-((4-aminopyrimidin-2-yl)methyl)-4-(3-(4-(trifluoromethyl)phenyl)-1H-pyrazolo[4,3-b]pyridin-1-yl)pyridin-2(1H)-one] | ≤ 100 nM | ≤ 1000 nM |
| O=c1cc(-n2nc(-c3ccc(C(F)(F)F)cc3)c3ncccc32)ccn1Cc1cccnc1 [Compound 120, 1-(pyridin-3-ylmethyl)-4-(3-(4-(trifluoromethyl)phenyl)-1H-pyrazolo[4,3-b]pyridin-1-yl)pyridin-2(1H)-one] | ≤ 100 nM | ≤ 1000 nM |
| Nc1cc(Cn2ccc(-n3nc(-c4ccc(C(F)(F)F)cc4)c4ncccc43)cc2=O)ccn1 [Compound 121, 1-((2-aminopyridin-4-yl)methyl)-4-(3-(4-(trifluoromethyl)phenyl)-1H-pyrazolo[4,3-b]pyridin-1-yl)pyridin-2(1H)-one] | ≤ 100 nM | ≤ 1000 nM |
| CNc1ccnc(Cn2ccc(-c3nc(-c4ccc(C(F)(F)F)cc4)n4ccccc34)cc2=O)n1 [Compound 125, 1-((4-(methylamino)pyrimidin-2-yl)methyl)-4-(3-(4-(trifluoromethyl)phenyl)imidazo[1,5-a]pyridin-1-yl)pyridin-2(1H)-one] | ≤ 100 nM | ≤ 1000 nM |
| O=c1cc(-c2nn(-c3ccc(C(F)(F)F)cc3)c3ncccc23)ccn1Cc1ccnc(OCCO)n1 [Compound 126, 1-((2-(2-hydroxyethoxy)pyrimidin-4-yl)methyl)-4-(1-(4-(trifluoromethyl)phenyl)-1H-pyrazolo[3,4-b]pyridin-3-yl)pyridin-2(1H)-one] | ≤ 100 nM | ≤ 1000 nM |
| CNc1nccc(Cn2ccc(-c3nc(-c4ccc(C(F)(F)F)cc4)n4ccccc34)cc2=O)n1 [Compound 127, 1-((2-(methylamino)pyrimidin-4-yl)methyl)-4-(3-(4-(trifluoromethyl)phenyl)imidazo[1,5-a]pyridin-1-yl)pyridin-2(1H)-one] | ≤ 100 nM | ≤ 1000 nM |
| CNc1nccc(Cn2ccc(-c3nn(-c4ccc(C(F)(F)F)cc4)c4c(F)cccc34)cc2=O)n1 [Compound 128, 4-(7-fluoro-1-(4-(trifluoromethyl)phenyl)-1H-indazol-3-yl)-1-((2-(methylamino)pyrimidin-4-yl)methyl)pyridin-2(1H)-one] | ≤ 100 nM | ≤ 1000 nM |
| CNc1ccnc(Cn2ccc(-c3nn(-c4ccc(C(F)(F)F)cc4)c4c(F)cccc34)cc2=O)n1 [Compound 129, 4-(7-fluoro-1-(4-(trifluoromethyl)phenyl)-1H-indazol-3-yl)-1-((4-(methylamino)pyrimidin-2-yl)methyl)pyridin-2(1H)-one] | ≤ 100 nM | ≤ 1000 nM |
| CNc1nccc([C@@H](C)n2ccc(-c3nn(-c4ccc(C(F)(F)F)cc4)c4ncccc34)cc2=O)n1 [Compound 130, (R)-1-(1-(2-(methylamino)pyrimidin-4-yl)ethyl)-4-(1-(4-(trifluoromethyl)phenyl)-1H-pyrazolo[3,4-b]pyridin-3-yl)pyridin-2(1H)-one] | 100 to 1000 nM | ≤ 1000 nM |
| CNc1nccc([C@H](C)n2ccc(-c3nn(-c4ccc(C(F)(F)F)cc4)c4ncccc34)cc2=O)n1 [Compound 131, (S)-1-(1-(2-(methylamino)pyrimidin-4-yl)ethyl)-4-(1-(4-(trifluoromethyl)phenyl)-1H-pyrazolo[3,4-b]pyridin-3-yl)pyridin-2(1H)-one] | ≤ 100 nM | ≤ 1000 nM |
| O=c1cc(-c2nc(-c3ccc(C(F)(F)F)cc3)n3ccccc23)ccn1Cc1ccnc(OCCO)n1 [Compound 132, 1-((2-(2-hydroxyethoxy)pyrimidin-4-yl)methyl)-4-(3-(4-(trifluoromethyl)phenyl)imidazo[1,5-a]pyridin-1-yl)pyridin-2(1H)-one] | ≤ 100 nM | ≤ 1000 nM |
| O=c1cc(-c2nn(-c3ccc(C(F)(F)F)cc3)c3c(F)cccc23)ccn1Cc1ccnc(OCCO)n1 [Compound 133, 4-(7-fluoro-1-(4-(trifluoromethyl)phenyl)-1H-indazol-3-yl)-1-((2-(2-hydroxyethoxy)pyrimidin-4-yl)methyl)pyridin-2(1H)-one] | ≤ 100 nM | ≤ 1000 nM |
| COCCOc1nccc(Cn2ccc(-c3nn(-c4ccc(C(F)(F)F)cc4)c4c(F)cccc34)cc2=O)n1 [Compound 134, 4-(7-fluoro-1-(4-(trifluoromethyl)phenyl)-1H-indazol-3-yl)-1-((2-(2-methoxyethoxy)pyrimidin-4-yl)methyl)pyridin-2(1H)-one] | ≤ 100 nM | ≤ 1000 nM |
| CNc1nccc(Cn2ccc(-n3nc(-c4ccc(C(F)(F)F)cc4)c4c(F)cccc43)cc2=O)n1 [Compound 135, 4-(4-fluoro-3-(4-(trifluoromethyl)phenyl)-1H-indazol-1-yl)-1-((2-(methylamino)pyrimidin-4-yl)methyl)pyridin-2(1H)-one] | ≤ 100 nM | ≤ 1000 nM |
| O=c1cc(-n2nc(-c3ccc(C(F)(F)F)cc3)c3c(F)cccc32)ccn1Cc1ccnc(OCCO)n1 [Compound 136, 4-(4-fluoro-3-(4-(trifluoromethyl)phenyl)-1H-indazol-1-yl)-1-((2-(2-hydroxyethoxy)pyrimidin-4-yl)methyl)pyridin-2(1H)-one] | ≤ 100 nM | ≤ 1000 nM |
| COCCOc1nccc(Cn2ccc(-n3nc(-c4ccc(C(F)(F)F)cc4)c4c(F)cccc43)cc2=O)n1 [Compound 137, 4-(4-fluoro-3-(4-(trifluoromethyl)phenyl)-1H-indazol-1-yl)-1-((2-(2-methoxyethoxy)pyrimidin-4-yl)methyl)pyridin-2(1H)-one] | ≤ 100 nM | ≤ 1000 nM |
| CN(CCO)c1nccc(Cn2ccc(-c3nn(-c4ccc(C(F)(F)F)cc4)c4c(F)cccc34)cc2=O)n1 [Compound 138, 4-(7-fluoro-1-(4-(trifluoromethyl)phenyl)-1H-indazol-3-yl)-1-((2-((2-hydroxyethyl)(methyl)amino)pyrimidin-4-yl)methyl)pyridin-2(1H)-one] | 100 to 1000 nM | ≤ 1000 nM |
| CN(CCO)c1nccc(Cn2ccc(-n3nc(-c4ccc(C(F)(F)F)cc4)c4c(F)cccc43)cc2=O)n1 [Compound 139, 4-(4-fluoro-3-(4-(trifluoromethyl)phenyl)-1H-indazol-1-yl)-1-((2-((2-hydroxyethyl)(methyl)amino)pyrimidin-4-yl)methyl)pyridin-2(1H)-one] | ≤ 100 nM | ≤ 1000 nM |
| CNc1nccc(Cn2ccc(-c3nn(-c4ccc(C(F)(F)F)cc4)c4ccc(F)cc34)cc2=O)n1 [Compound 140, 4-(5-fluoro-1-(4-(trifluoromethyl)phenyl)-1H-indazol-3-yl)-1-((2-(methylamino)pyrimidin-4-yl)methyl)pyridin-2(1H)-one] | ≤ 100 nM | ≤ 1000 nM |
| CNc1nccc(Cn2ccc(-c3nn(-c4ccc(C(F)(F)F)cc4)c4cc(F)ccc34)cc2=O)n1 [Compound 141, 4-(6-fluoro-1-(4-(trifluoromethyl)phenyl)-1H-indazol-3-yl)-1-((2-(methylamino)pyrimidin-4-yl)methyl)pyridin-2(1H)-one] | ≤ 100 nM | ≤ 1000 nM |
| CNc1nccc(Cn2ccc(-c3nn(-c4ccc(C(F)(F)F)cc4)c4c(OC)cccc34)cc2=O)n1 [Compound 142, 4-(7-methoxy-1-(4-(trifluoromethyl)phenyl)-1H-indazol-3-yl)-1-((2-(methylamino)pyrimidin-4-yl)methyl)pyridin-2(1H)-one] | 100 to 1000 nM | ≤ 1000 nM |
| CNc1nccc(Cn2ccc(-c3nn(-c4ccc(C(F)(F)F)cc4)c4c(C)cccc34)cc2=O)n1 [Compound 143, 4-(7-methyl-1-(4-(trifluoromethyl)phenyl)-1H-indazol-3-yl)-1-((2-(methylamino)pyrimidin-4-yl)methyl)pyridin-2(1H)-one] | 100 to 1000 nM | ≤ 1000 nM |
| CNc1nccc(Cn2ccc(-c3nn(-c4ccc(OC(F)(F)F)cc4)c4c(F)cccc34)cc2=O)n1 [Compound 145, 4-(7-fluoro-1-(4-(trifluoromethoxy)phenyl)-1H-indazol-3-yl)-1-((2-(methylamino)pyrimidin-4-yl)methyl)pyridin-2(1H)-one] | ≤ 100 nM | ≤ 1000 nM |
| CNc1nccc(Cn2ccc(-c3nn(-c4ccc(Cl)cc4)c4c(F)cccc34)cc2=O)n1 [Compound 146, 4-(1-(4-chlorophenyl)-7-fluoro-1H-indazol-3-yl)-1-((2-(methylamino)pyrimidin-4-yl)methyl)pyridin-2(1H)-one] | ≤ 100 nM | ≤ 1000 nM |
